Reference: patent US7499847B2, “Crystalline VAP-1 and uses thereof” (Biotie Therapies Corporation, priority 2003, dated 2009)

Assays:
[1] = biological target: T1, Recombinant human VAP-1 SSAO (Homo sapiens, UniProt Q16853); assay: VAP-1 SSAO activity, coupled colourimetric assay (benzylamine substrate); assay type: biochemical; conditions: for IC50: CHO cell lysate with recombinant human VAP-1 SSAO, 1 mM benzylamine, 1 h at 37° C., read-out: VAP-1 SSAO inhibitory activity IC50; for Selectivity for VAP-1 SSAO over MAO: ratio of total rat MAO IC50 to human VAP-1 SSAO IC50
T1 construct: expressed in transfected cells; host or cells: CHO cells (clarified NP40 lysate used directly)
T1 sequence (Q16853 1-763): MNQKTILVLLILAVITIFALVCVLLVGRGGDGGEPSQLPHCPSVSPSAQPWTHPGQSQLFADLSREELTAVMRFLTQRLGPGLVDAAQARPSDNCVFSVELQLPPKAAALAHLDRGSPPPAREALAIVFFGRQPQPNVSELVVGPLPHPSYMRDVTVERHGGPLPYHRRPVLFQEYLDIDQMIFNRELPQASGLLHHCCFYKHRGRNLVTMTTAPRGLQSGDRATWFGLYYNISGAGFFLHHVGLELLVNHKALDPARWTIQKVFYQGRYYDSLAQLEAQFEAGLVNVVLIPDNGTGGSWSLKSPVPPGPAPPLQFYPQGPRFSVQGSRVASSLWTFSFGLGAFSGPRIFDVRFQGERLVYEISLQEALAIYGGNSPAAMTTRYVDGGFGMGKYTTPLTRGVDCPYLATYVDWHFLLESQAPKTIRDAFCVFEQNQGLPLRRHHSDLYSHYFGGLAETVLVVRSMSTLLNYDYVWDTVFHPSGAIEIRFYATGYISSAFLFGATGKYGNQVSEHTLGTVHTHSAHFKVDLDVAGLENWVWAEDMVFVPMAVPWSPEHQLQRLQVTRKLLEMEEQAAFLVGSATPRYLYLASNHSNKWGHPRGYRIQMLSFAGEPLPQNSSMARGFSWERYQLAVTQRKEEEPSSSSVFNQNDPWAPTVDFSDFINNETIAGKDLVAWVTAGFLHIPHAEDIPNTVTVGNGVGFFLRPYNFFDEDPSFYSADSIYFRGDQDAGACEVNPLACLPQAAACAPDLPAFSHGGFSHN
Procedure: VAP-1 SSAO activity was measured using the coupled colourimetric method essentially as described for monoamine oxidase and related enzymes. Recombinant human VAP-1 SSAO expressed in Chinese Hamster Ovary (CHO) cells was used as a source of VAP-1 SSAO for activity measurements. Native CHO cells have negligible SSAO activity. These cells and their culture have previously been described (Smith D J et al., 1998).
A cell lysate was prepared by suspending approximately 3.6×10^8 cells in 25 ml lysis buffer (150 mM NaCl, 10 mM Tris-Base pH 7.2, 1.5 mM MgCl2, 1% NP40) and incubating at 4° C. overnight on a rotating table. The lysate was clarified by centrifugation at 18000 g for 5 min at room temperature and the supematant used directly in the assay.
The VAP-1 SSAO assay was performed in 96 well microtitre plates as follows. To each well was added a predetermined amount of inhibitor if required. The amount of inhibitor varied in each assay but was generally at a final concentration of between 1 nM and 50 μM. Controls lacked inhibitor. The inhibitor was in a total volume of […] in water. The following reagents were then added. 0.2M potassium phosphate buffer pH 7.6 to a total reaction volume of 200 μl, 45 μl of freshly made chromogenic solution containing 1 mM 2,4-dichlorophenol, 500 μM 4-aminoantipyrine and 4 U/ml horseradish peroxidase and an amount of CHO cell lysate containing VAP-1 SSAO that caused a change of 0.6 A490 per h. This was within the linear response range of the assay.
The plates were incubated for 30 min at 37° C. and the background absorbance measured at 490 nm using a Wallac Victor II multilabel counter. To initiate the enzyme reaction 20 μl 10 mM benzylamine (final concentration=1 mM) was added and the plate incubated for 1 h at 37° C.
The increase in absorbance, reflecting VAP-1 SSAO activity, was measured at 490 nm. Inhibition was presented as percent inhibition compared to control after correcting for background absorbance and IC50. values calculated using GraphPad Prism.

[2] = test system: T2, Total rat MAO (rat liver mitochondrial preparate); assay: Total rat MAO activity, colourimetric assay (tyramine substrate); assay type: biochemical; conditions: rat liver MAO preparation, 0.5 mM tyramine, 1 h at 37° C.; read-out: Total MAO inhibitory activity IC50
T2 construct: Rat MAO was prepared from rat liver; Mitochondrial preparate was aliquoted and stored at −70° C
Procedure: Rat MAO was prepared from rat liver by rinsing a 1 g liver sample several times in 14 ml KCl-EDTA-solution to remove all blood. Then 1 g liver sample was homogenised in 4 ml ice-cold potassium phosphate buffer (0.1 M, pH 7.4) with an Ultra-Turrax homogeniser (setting 11 000 rpm, 4×10 s). After centrifugation at 500 g for 10 min at 4° C. the supematant was carefully withdrawn and was centrifuged at 12 300 g for 15 min at 4° C. The supernatant was discharged and sedimented mitochondria were resuspended in 4 ml fresh phosphate buffer and centrifuged as previously. The mitochondria were suspended in 4 ml phosphate buffer and homogenized with an Ultra-Turrax homogeniser (setting 11 000 rpm, 2×10 s). Mitochondrial preparate was aliquoted and stored at −70° C. […] To each well was added a predetermined amount of inhibitor if required. The amount of inhibitor varied in each assay but was generally at a final concentration of between 10 nM and […]. Controls lacked inhibitor. […] The plates were incubated for 30 min at 37° C. and the background absorbance measured at 490 nm using a Wallac Victor II multilabel counter. To initiate the enzyme reaction 20 μl of 5 mM tyramine (final concentration 0.5 mM) was added and the plate incubated for 1 h at 37° C. The increase in absorbance, reflecting MAO activity, was measured at 490nm. Inhibition was presented as percent inhibition compared to control after correcting for background absorbance and IC50 values calculated using GraphPad Prism. Clorgyline and pargyline (inhibitors of MAO-A and -B respectively) at 0.5 μM were added to some wells as positive controls for MAO inhibition.

SMILES	IC50 [1] [nM]	Selectivity for VAP-1 SSAO over MAO [1]	IC50 [2] [nM]
CN(N)CC(O)COc1ccccc1.O=C(O)/C=C\C(=O)O (stereo not drawn) [Compound 1]	370	35	13000
Cc1ccccc1OCC(O)CN(C)N.O=C(O)/C=C/C(=O)O (stereo not drawn) [Compound 2]	520	17	8700
COC(COc1ccc(Cl)cc1)CN(C)N.O=C(O)/C=C/C(=O)O (stereo not drawn) [Compound 3]	260	13	3300
Cc1ccc(OCC(O)CN(C)N)cc1.O=C(O)/C=C/C(=O)O (stereo not drawn) [Compound 4]	430	23	10000
COC(COc1cccc2ccccc12)CN(C)N.O=C(O)/C=C\C(=O)O (stereo not drawn) [Compound 5]	520	8	4000
COc1ccc(OCC(O)CNNc2ccccc2)cc1.Cl (stereo not drawn) [Compound 6]	90	37	3300
COC(COc1ccc(C)cc1)CN(C)N.O=C(O)/C=C/C(=O)O (stereo not drawn) [Compound 7]	440	14	6000
CN(N)CC(O)COc1cccc2ccccc12.O=C(O)/C=C\C(=O)O (stereo not drawn) [Compound 8]	650	15	10000
COc1ccc(SCC(O)CN(C)N)cc1OC.O=C(O)/C=C/C(=O)O (stereo not drawn) [Compound 9]	210	195	41000
CN(N)CC(O)COc1ccc2ccccc2c1.O=C(O)/C=C/C(=O)O (stereo not drawn) [Compound 10]	550	11	6000
CN(N)CC(O)CSc1ccccc1.O=C(O)/C=C/C(=O)O (stereo not drawn) [Compound 11]	270	41	11000

More lines, now with the values ahead:

IC50 [1] [nM]	Selectivity for VAP-1 SSAO over MAO [1]	IC50 [2] [nM]	SMILES
330	112	37000	COc1cccc(OCC(O)CN(C)N)c1.O=C(O)/C=C/C(=O)O (stereo not drawn) [Compound 12]
640	5	3300	COC(COc1ccc2ccccc2c1)CN(C)N.O=C(O)/C=C/C(=O)O (stereo not drawn) [Compound 13]
370	9	3400	COC(CSc1ccccc1)CN(C)N.O=C(O)/C=C/C(=O)O (stereo not drawn) [Compound 14]
350	21	7400	COc1ccc(OCC(O)CN(C)N)cc1.O=C(O)/C=C\C(=O)O (stereo not drawn) [Compound 16]
430	14	6100	CN(N)CC(O)COc1ccc(Cl)cc1.O=C(O)/C=C/C(=O)O (stereo not drawn) [Compound 17]
200	45	8800	CN(N)CC(O)CN(C)c1ccccc1.O=C(O)/C=C/C(=O)O (stereo not drawn) [Compound 19]
340	28	9600	COC(CN(C)N)CN(C)c1ccccc1.O=C(O)/C=C/C(=O)O (stereo not drawn) [Compound 20]
